What all share (type): cell-based, human
The subject of one experiment is HepG2. The experiment can be described thus: MTT cytotoxicity assay, HepG2. The conditions noted are these: Homo sapiens. On the procedure: (§1) The cytotoxic assay of 11 naturally occurring and 19 synthesized phenanthrenes was carried out on a diverse set of human liver (HepG2 and Hep3B), oral (Ca9-22), lung (A549) and breast (MEA-MB-231 and MCF7) cancer cell lines, and a human fetal lung fibroblast (MRC-5) cell line (Tables 1 and 2).
(§2) Compounds were tested against human liver (HepG2 and Hep3B), oral (Ca9-22), lung (A549), breast (MEA-MB-231 and MCF7) cancer cell lines, and the human fetal lung fibroblast (MRC-5) cell line using an established colorimetric MTT assay protocol. The absorbance was measured at 550 nm using a microplate reader. The IC50 is the concentration of agent that reduced cell growth by 50% under the experimental conditions.
In general terms: Formazan colour is commonly taken as a measure of viable cells.

Another experiment relates to Ca9-22. The experiment is described as follows: MTT cytotoxicity assay, Ca9-22. The conditions noted are these: Homo sapiens. The method, then:
as §1, §2

A further experiment deals with MCF-7. The experiment can be described thus: MTT cytotoxicity assay, MCF-7. The conditions noted are these: Homo sapiens; for IC50: MTT; for MCF-7 activity class (from IC50): MCF7, Table S3, read-out: Scale Exptl. (MCF-7 activity class). On the procedure:
as §1, §2
The pharmacophore modeling with Catalyst HypoGen was performed via Discovery Studio 2.1 (Accelrys, San Diego, CA, USA). Twenty-nine phenanthrene derivatives were collected from the natural plant, C. arisanensis, and from chemical synthesis (Figure 2). Cytotoxicity against MCF-7 cells was determined by the MTT assay and the concentration (µg/mL) of test compound which inhibited 50% of the cancer cells (IC50) was used in the generation of the pharmacophore model. An IC50 value of >20 µg/mL was defined as 20 µg/mL. All experimental IC50 values spanned about 2–3 orders of magnitude from 0.09 to 20 µg/mL. The 2D/3D structures of compounds were generated using ChemBioOffice 2008 (Cambridge Scientic Computing, Cambridge, Massachusetts, USA) and then optimized in a Dreiding force field. The conformational ensemble of each compound was generated using the best conformational analysis method based on a CHARMM force field with a 20 kcal/mol energy threshold above the global minimum. A maximum limit of 255 conformations was used to cover maximum conformational space. The best 3D arrangements of chemical functionalities should explain the activity variations among the 29 compounds. Thirty runs with different parameters were performed for the best pharmacophore hypothesis. Four chemical features, including hydrogen-bond acceptor (HBA), hydrogen-bond donor (HBD), hydrophobic (HYD), and aromatic ring (AR) features, were also tested during the building of pharmacophore hypotheses (Table S1; Text S1). The best hypotheses were selected via a correlation and a cost analysis in Catalyst HypoGen.

In a further experiment the test system is Hep3B. The experiment can be described thus: MTT cytotoxicity assay, Hep3B. Particulars: Homo sapiens, Hep3B. On the procedure:
as §1, §2

A further experiment relates to MRC-5. The experiment can be described thus: MTT cytotoxicity assay, MRC-5 fetal lung fibroblast. Particulars: Homo sapiens, normal fetal lung fibroblast. On the procedure:
as §1, §2

In another experiment the test system is A549. The experiment is described as follows: MTT cytotoxicity assay, A549. The conditions noted are these: Homo sapiens. On the procedure:
as §1, §2

The next experiment concerns MDA-MB-231. The experiment is described as follows: MTT cytotoxicity assay, MDA-MB-231. The conditions noted are these: Homo sapiens. On the procedure:
as §1, §2

[1] abbreviates: HepG2, Table 2, synthesized phenanthrenes.
Setting [2] is: Ca9-22, Table 2, synthesized phenanthrenes.
[3] abbreviates: MCF7, Table 2, synthesized phenanthrenes.
Setting [4] is: Table 2, synthesized phenanthrenes.
Where [5] appears, read: MRC5, Table 2, synthesized phenanthrenes.
The mark [6] stands for this setting: A549, Table 2, synthesized phenanthrenes.
[7] abbreviates: MDA-MB-231, Table 2, synthesized phenanthrenes.
Setting [8] is: HepG2, Table 1, natural phenanthrenes.
The mark [9] stands for this setting: Ca9-22, Table 1, natural phenanthrenes.
[10] abbreviates: MCF7, Table 1, natural phenanthrenes.
[11] abbreviates: MRC5, Table 1, natural phenanthrenes.
Setting [12] is: A549, Table 1, natural phenanthrenes.
Where [13] appears, read: MDA-MB-231, Table 1, natural phenanthrenes.

≈ marks a conversion by molar mass, not a printed value.

Eight compounds from paper PMC3362575, “Synthesis and Biological Evaluation of Phenanthrenes as Cytotoxic Agents with Pharmacophore Modeling and ChemGPS-NP Prediction as Topo II Inhibitors” (PLoS ONE, 2012) can be followed below.

As usually defined, the IC50 is the concentration that inhibits the measured activity by half. Read a high IC50 as weaker potency. For `COc1cc2ccc3c(OC)ccc(OC)c3c2c(O)c1O` [Compound 8a, 5,6-Dihydroxy-1,4,7-trimethoxy-phenanthrene], the IC50 in the experiment on HepG2 (setting [1]) is 19.4 ± 0.56 µg/mL (≈ 64.5 µM); with Ca9-22 (setting [2]), 3.91 ± 0.07 µg/mL (≈ 13 µM); in the experiment with MCF-7 (setting [3]), 17 ± 0.42 µg/mL (≈ 56.6 µM); with Hep3B (setting [4]), 5.77 ± 0.63 µg/mL (≈ 19.2 µM); in the experiment on MRC-5 (setting [5]), over 20 µg/mL; in the experiment on A549 (setting [6]) it was over 20 µg/mL. In the experiment with MDA-MB-231 (setting [7]), this compound showed an IC50 of 15.6 ± 1.52 µg/mL (≈ 52 µM). The MCF-7 activity class (from IC50) in the experiment with MCF-7 is 1 to 20 µg/mL.

Take `COc1cc2ccc3c(c2c(OC)c1OC)C(=O)C=CC3=O` [Compound 4a, 5,6,7-Trimethoxy-1,4-phenanthrenequinone]: the IC50 in the experiment with HepG2 (setting [1]) was 15.68 ± 0.01 µg/mL (≈ 52.6 µM); in the experiment with Ca9-22 (setting [2]) it was 2.17 ± 0.01 µg/mL (≈ 7.27 µM); with MCF-7 (setting [3]), 13.2 ± 0.38 µg/mL (≈ 44.2 µM); in the experiment with Hep3B (setting [4]), 7.33 ± 0.03 µg/mL (≈ 24.6 µM); with MRC-5 (setting [5]), 11.9 ± 0.12 µg/mL (≈ 40 µM); in the experiment with A549 (setting [6]) it was 15.94 ± 0.01 µg/mL (≈ 53.4 µM). Moreover, the IC50 with MDA-MB-231 (setting [7]) was determined as 4.6 ± 0.06 µg/mL (≈ 15.4 µM). For the same compound, the MCF-7 activity class (from IC50) in the experiment on MCF-7 was 1 to 20 µg/mL.

With `COc1c(O)cc2c(c1OC)-c1c(O)ccc(O)c1CC2` [CA-5], the IC50 is 17.8 ± 0.4 µg/mL (≈ 61.7 µM) with HepG2 (setting [8]); 12.17 ± 0.03 µg/mL (≈ 42.2 µM) with Ca9-22 (setting [9]); 12.7 ± 0.07 µg/mL (≈ 44.1 µM) with MCF-7 (setting [10]); 9.87 ± 0.09 µg/mL (≈ 34.2 µM) in the experiment with Hep3B (Table 1, natural phenanthrenes); over 20 µg/mL with MRC-5 (setting [11]); over 20 µg/mL in the experiment on A549 (setting [12]). In the experiment with MDA-MB-231 (setting [13]), this compound displayed an IC50 of 11.7 ± 0.13 µg/mL (≈ 40.4 µM). Besides, the MCF-7 activity class (from IC50) in the experiment with MCF-7 was 1 to 20 µg/mL.

As for `COc1cc2ccc3c(OC)ccc(OC)c3c2c(O)c1OC` [Compound 9a, 5-hydroxy-1,4,6,7-tetramethoxy-phenanthrene], the IC50 in the experiment with HepG2 (setting [1]), with Ca9-22 (setting [2]), in the experiment on MCF-7 (setting [3]), in the experiment with Hep3B (setting [4]), with MRC-5 (setting [5]) and in the experiment with A549 (setting [6]) was over 20 µg/mL in each case. In the experiment with MDA-MB-231 (setting [7]), the IC50 is over 20 µg/mL. Further, the MCF-7 activity class (from IC50) in the experiment with MCF-7 is over 20 µg/mL.

For `COC1=CC(=O)c2ccc3cc(OC)c(O)c(OC)c3c2C1=O` [CA-2, calanquinone B], the IC50 is 14.5 ± 0.43 µg/mL (≈ 46 µM) with HepG2 (setting [8]); 14.64 ± 0.11 µg/mL (≈ 46.6 µM) in the experiment with Ca9-22 (setting [9]); 11.9 ± 0.08 µg/mL (≈ 37.9 µM) in the experiment on MCF-7 (setting [10]); 11.9 ± 0.55 µg/mL (≈ 38 µM) with Hep3B (Table 1, natural phenanthrenes); over 20 µg/mL in the experiment with MRC-5 (setting [11]); 18.5 ± 0.29 µg/mL (≈ 58.9 µM) in the experiment with A549 (setting [12]). In the experiment on MDA-MB-231 (setting [13]), this compound gave an IC50 of over 20 µg/mL. In the experiment with MCF-7, the MCF-7 activity class (from IC50) lay within 1 to 20 µg/mL.

For the compound `COC1=CC(=O)c2ccc3c(-c4c(OC)c(OC)c(OC)c5c6c(ccc45)C(=O)CC(OC)(OC)C6=O)c(OC)c(OC)c(OC)c3c2C1=O` [Compound 5e, 3,5,6,7,3′,3′,5′,6,7′-nonamethoxy-2′3′-dihydro-[8,8′]bi-1,4,1′,4′-phenanthrenequinone], the IC50 amounted to 1.24 ± 0.08 µg/mL (≈ 1.81 µM) in the experiment on HepG2 (setting [1]); 6.21 ± 0.12 µg/mL (≈ 9.04 µM) in the experiment on Ca9-22 (setting [2]); 9.4 µg/mL (≈ 13.7 µM) with MCF-7 (setting [3]); 7.38 ± 0.02 µg/mL (≈ 10.7 µM) with Hep3B (setting [4]); 8.11 ± 0.25 µg/mL (≈ 11.8 µM) in the experiment on MRC-5 (setting [5]); 7.49 ± 0.07 µg/mL (≈ 10.9 µM) with A549 (setting [6]). This compound also gave an IC50 with MDA-MB-231 (setting [7]) of 6.74 ± 0.05 µg/mL (≈ 9.82 µM). Further, the MCF-7 activity class (from IC50) in the experiment with MCF-7 was 1 to 20 µg/mL.

With `COc1cc(OC)c2c(ccc3c(OC)ccc(OC)c32)c1` [Compound 3b, 1,4,5,7-Tetramethoxy-phenanthrene], the IC50 with HepG2 (setting [1]) is over 20 µg/mL; in the experiment with Ca9-22 (setting [2]) it was 18.44 ± 0.11 µg/mL (≈ 61.8 µM); with MCF-7 (setting [3]) it was over 20 µg/mL; in the experiment with Hep3B (setting [4]) it was over 20 µg/mL; in the experiment on MRC-5 (setting [5]) it was over 20 µg/mL; in the experiment with A549 (setting [6]), over 20 µg/mL. In addition, the IC50 in the experiment with MDA-MB-231 (setting [7]) is over 20 µg/mL. The MCF-7 activity class (from IC50) with MCF-7 was over 20 µg/mL.

For the compound `COc1cc2c(c(OC)c1O)-c1c(O)ccc(O)c1CC2` [CA-4], the IC50 was over 20 µg/mL in the experiment on HepG2 (setting [8]); 15.12 ± 0.14 µg/mL (≈ 52.4 µM) with Ca9-22 (setting [9]); 14.3 ± 0.18 µg/mL (≈ 49.6 µM) in the experiment on MCF-7 (setting [10]); 11.1 ± 0.73 µg/mL (≈ 38.3 µM) with Hep3B (Table 1, natural phenanthrenes); over 20 µg/mL in the experiment with MRC-5 (setting [11]); over 20 µg/mL with A549 (setting [12]). In the experiment with MDA-MB-231 (setting [13]), this compound came in with an IC50 of 19.8 ± 0.45 µg/mL (≈ 68.8 µM). In addition, the MCF-7 activity class (from IC50) in the experiment with MCF-7 fell in the range of 1 to 20 µg/mL.
